This passage reports IC50 and ΔTm results from ChEMBL document CHEMBL4028852, “Design of a Chemical Probe for the Bromodomain and Plant Homeodomain Finger-Containing (BRPF) Family of Proteins” (J Med Chem, 2017).

The target in assay [1] is T1, Bromodomain and PHD finger-containing protein 3 (Homo sapiens, UniProt Q9ULD4).
T1 sequence (Q9ULD4 whole entry): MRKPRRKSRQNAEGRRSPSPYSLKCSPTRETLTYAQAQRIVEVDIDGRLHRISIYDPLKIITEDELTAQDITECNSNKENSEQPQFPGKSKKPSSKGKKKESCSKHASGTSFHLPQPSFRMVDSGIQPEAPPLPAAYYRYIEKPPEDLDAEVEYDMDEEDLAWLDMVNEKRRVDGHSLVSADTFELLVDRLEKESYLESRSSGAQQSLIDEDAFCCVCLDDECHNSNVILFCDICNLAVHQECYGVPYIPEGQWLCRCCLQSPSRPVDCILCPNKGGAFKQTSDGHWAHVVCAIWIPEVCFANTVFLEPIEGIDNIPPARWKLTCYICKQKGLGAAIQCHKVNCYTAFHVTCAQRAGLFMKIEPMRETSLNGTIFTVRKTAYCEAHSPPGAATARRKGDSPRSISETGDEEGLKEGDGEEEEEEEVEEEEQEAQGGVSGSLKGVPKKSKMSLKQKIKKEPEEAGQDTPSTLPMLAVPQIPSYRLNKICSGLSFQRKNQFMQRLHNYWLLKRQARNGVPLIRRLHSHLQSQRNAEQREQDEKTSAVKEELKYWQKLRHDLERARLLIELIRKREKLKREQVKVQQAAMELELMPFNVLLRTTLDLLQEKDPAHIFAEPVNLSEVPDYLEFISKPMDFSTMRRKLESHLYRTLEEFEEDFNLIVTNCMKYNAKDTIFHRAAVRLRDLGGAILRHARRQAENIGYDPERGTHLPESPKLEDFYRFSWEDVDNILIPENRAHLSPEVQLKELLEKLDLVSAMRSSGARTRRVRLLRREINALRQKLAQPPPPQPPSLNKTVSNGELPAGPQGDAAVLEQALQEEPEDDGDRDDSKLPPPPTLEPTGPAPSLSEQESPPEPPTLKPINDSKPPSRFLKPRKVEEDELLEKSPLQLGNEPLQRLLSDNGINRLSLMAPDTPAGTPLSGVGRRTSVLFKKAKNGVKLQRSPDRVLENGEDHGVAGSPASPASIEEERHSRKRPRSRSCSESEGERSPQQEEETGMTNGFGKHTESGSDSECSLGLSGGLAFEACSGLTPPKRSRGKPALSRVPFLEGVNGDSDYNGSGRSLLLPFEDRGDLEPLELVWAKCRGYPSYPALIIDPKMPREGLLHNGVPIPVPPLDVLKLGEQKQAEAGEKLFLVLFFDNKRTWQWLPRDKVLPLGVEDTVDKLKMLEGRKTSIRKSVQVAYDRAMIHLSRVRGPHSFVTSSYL
Briefly: Inhibition of human BRPF3 (588 to 701 residues) expressed in Escherichia coli BL21 after 1 hr by BROMOscan assay.

A further assay concerns the target T2, Peregrin (Homo sapiens) (UniProt P55201).
T2 sequence (whole entry): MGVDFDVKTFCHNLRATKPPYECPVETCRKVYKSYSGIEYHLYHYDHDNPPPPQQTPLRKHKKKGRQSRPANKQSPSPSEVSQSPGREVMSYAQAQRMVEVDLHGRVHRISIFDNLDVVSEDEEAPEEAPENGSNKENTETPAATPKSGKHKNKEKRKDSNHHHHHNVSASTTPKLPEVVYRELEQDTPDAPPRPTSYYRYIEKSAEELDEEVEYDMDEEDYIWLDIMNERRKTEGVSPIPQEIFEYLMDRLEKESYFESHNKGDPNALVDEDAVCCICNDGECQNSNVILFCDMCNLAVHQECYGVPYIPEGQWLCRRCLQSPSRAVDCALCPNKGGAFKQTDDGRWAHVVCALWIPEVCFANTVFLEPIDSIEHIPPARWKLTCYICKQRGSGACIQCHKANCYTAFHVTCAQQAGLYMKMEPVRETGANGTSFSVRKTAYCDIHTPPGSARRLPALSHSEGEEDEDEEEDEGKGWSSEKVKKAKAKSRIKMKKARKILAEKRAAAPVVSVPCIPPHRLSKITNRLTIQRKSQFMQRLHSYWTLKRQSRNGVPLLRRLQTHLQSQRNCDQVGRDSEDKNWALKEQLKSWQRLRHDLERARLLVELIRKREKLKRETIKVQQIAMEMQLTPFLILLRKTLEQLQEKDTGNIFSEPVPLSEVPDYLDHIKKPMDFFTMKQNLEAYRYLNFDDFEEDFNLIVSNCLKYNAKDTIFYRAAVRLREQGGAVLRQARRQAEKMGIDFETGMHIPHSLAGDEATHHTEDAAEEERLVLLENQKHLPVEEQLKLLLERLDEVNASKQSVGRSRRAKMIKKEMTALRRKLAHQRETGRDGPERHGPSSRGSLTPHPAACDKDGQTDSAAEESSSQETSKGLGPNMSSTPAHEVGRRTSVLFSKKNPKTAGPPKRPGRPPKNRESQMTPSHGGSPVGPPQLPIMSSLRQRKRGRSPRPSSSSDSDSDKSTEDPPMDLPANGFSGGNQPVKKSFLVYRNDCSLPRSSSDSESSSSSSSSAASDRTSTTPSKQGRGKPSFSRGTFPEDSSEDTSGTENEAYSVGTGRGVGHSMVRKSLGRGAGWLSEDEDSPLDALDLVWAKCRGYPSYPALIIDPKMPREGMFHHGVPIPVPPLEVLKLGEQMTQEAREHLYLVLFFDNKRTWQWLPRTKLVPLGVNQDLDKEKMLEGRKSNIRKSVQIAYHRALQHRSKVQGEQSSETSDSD

The next assay concerns the target T3, Peregrin (Homo sapiens, UniProt P55201).
T3 sequence (P55201 whole entry): T2 sequence (whole entry)
Briefly: Inhibition of human BRPF1 (627 to 740 residues) expressed in Escherichia coli BL21 after 1 hr by BROMOscan assay.

Assay [2] concerns the target T4, Bromodomain-containing protein 1 (Homo sapiens, UniProt O95696).
T4 sequence (O95696 whole entry): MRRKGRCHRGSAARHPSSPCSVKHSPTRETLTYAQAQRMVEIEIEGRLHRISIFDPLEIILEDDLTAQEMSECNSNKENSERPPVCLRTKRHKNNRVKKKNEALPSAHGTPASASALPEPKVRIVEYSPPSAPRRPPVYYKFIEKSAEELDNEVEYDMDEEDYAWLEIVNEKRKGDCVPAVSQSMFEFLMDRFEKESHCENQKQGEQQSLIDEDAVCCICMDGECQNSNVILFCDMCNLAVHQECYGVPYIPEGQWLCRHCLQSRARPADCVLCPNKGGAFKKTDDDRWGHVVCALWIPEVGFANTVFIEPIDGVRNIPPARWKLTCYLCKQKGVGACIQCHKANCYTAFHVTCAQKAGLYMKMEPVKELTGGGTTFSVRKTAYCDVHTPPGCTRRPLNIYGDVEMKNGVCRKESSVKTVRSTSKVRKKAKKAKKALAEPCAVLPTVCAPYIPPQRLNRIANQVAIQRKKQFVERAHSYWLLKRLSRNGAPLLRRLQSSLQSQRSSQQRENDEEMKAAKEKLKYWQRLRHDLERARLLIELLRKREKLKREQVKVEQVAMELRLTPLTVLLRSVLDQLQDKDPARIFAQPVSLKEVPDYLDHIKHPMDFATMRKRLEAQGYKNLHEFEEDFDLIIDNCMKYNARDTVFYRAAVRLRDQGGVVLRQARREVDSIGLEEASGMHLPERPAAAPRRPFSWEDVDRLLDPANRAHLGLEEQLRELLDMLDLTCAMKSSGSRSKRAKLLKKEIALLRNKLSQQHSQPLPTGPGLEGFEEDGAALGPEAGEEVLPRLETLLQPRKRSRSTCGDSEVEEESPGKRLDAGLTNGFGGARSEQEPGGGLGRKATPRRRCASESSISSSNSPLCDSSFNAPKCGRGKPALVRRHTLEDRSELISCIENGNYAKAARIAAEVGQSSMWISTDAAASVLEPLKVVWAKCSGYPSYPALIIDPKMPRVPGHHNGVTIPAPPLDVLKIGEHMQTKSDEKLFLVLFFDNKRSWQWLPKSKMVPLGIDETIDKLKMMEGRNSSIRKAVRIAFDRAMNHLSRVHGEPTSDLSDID
Briefly: Inhibition of human BRPF2 (556 to 688 residues) expressed in Escherichia coli BL21 after 1 hr by BROMOscan assay.

Assay [3] deals with Bromodomain-containing protein 4 (Homo sapiens, UniProt O60885). Briefly: Inhibition of human BRD4 isoform long bromodomain 1 (44 to 168 residues) expressed in Escherichia coli BL21 after 1 hr by BROMOscan assay.
Assay [4] has as its target T5, Bromodomain-containing protein 9 (Homo sapiens, UniProt Q9H8M2).
T5 sequence (Q9H8M2 whole entry): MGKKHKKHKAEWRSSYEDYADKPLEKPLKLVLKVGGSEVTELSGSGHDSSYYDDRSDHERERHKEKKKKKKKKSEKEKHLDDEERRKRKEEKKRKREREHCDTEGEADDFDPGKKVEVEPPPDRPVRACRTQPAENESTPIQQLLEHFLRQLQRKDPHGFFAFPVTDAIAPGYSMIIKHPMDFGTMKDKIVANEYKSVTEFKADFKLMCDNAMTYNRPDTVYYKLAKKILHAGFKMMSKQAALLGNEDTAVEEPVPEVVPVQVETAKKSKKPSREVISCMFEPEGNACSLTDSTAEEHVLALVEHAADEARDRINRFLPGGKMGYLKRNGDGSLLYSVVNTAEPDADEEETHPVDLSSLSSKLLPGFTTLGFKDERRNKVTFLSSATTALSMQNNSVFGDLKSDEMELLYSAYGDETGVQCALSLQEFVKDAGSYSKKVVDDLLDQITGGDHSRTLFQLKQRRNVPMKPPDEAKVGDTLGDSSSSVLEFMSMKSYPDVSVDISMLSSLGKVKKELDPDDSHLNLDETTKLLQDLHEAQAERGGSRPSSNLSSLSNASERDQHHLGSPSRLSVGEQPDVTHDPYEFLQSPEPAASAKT
Description: Inhibition of human BRD9 (130 to 259 residues) expressed in Escherichia coli BL21 after 1 hr by BROMOscan assay

Description for Peregrin (Homo sapiens): Binding affinity to BRPF1 (unknown origin) assessed as change in melting temperature at 10 uM by differential scanning fluorimetry based thermal shift assay

For the compound `Cn1c(=O)ccc2cc(S(=O)(=O)Nc3ccc(C#N)cc3)ccc21`, the 50% inhibitory concentration (IC50) in assay [1] is 2.2 µM. Further, on Peregrin (Homo sapiens), the shift in melting temperature (ΔTm) came to 3.1 °C.
`Cn1c(=O)ccc2cc(NS(=O)(=O)c3ccccc3C#N)ccc21`: at Peregrin (Homo sapiens), the ΔTm was found to be 2.4 °C.
On the same count and under the same terms, to `Cc1cc(=O)n(C)c2ccc(NS(=O)(=O)c3ccc(C#N)cc3)cc12` belongs 4.3 °C.
For `COc1cc(C#N)ccc1S(=O)(=O)N(c1ccc2c(c1)cc(C)c(=O)n2C)C(C)C`, the IC50 against Peregrin is 0.16 µM.
In the case of `COc1cc(C#N)ccc1S(=O)(=O)N(C)c1ccc2c(c1)cc(C)c(=O)n2C`, on Peregrin (Homo sapiens), the thermal shift (ΔTm) turned out to be 7.1 °C.
Same read-out and setting: to `Cn1c(=O)ccc2cc(NS(=O)(=O)c3ccc(C#N)cc3)ccc21` belongs 5.2 °C.
The same measure, in the same setting: to `Cn1c(=O)ccc2cc(NS(=O)(=O)C3CCCCC3)ccc21` belongs 3.9 °C; to `CN(c1ccc2c(ccc(=O)n2C)c1)S(=O)(=O)c1ccc(C#N)cc1`, 1.8 °C; to `COc1cc2c(cc1NS(=O)(=O)c1ccc(C#N)cc1)cc(C)c(=O)n2C`, 8.8 °C.
On the same count and under the same terms, the same measure for `CC(C)S(=O)(=O)Nc1ccc2c(ccc(=O)n2C)c1`: 2.2 °C.
On to `Cn1c(=O)ccc2cc(NS(C)(=O)=O)ccc21`, for which the ΔTm on Peregrin (Homo sapiens) turned out to be 1.4 °C.
With `CCc1cc2cc(NS(=O)(=O)c3ccc(C#N)cc3)ccc2n(C)c1=O`, on Peregrin (Homo sapiens), the thermal shift (ΔTm) stood at 5.6 °C.
For `CCc1cc2cc(NS(=O)(=O)c3ccc(C#N)cc3OC)ccc2n(CC)c1=O`, the IC50 on Peregrin turned out to be 0.25 µM; in assay [2], 4.4 µM; in assay [1], 4.6 µM.
Turning to `COc1cc(C#N)ccc1S(=O)(=O)Nc1cc(F)c2c(c1)cc(C)c(=O)n2C`, the IC50 is 0.012 µM at Peregrin, 0.51 µM in assay [2] and 10 µM in assay [1]. Besides, the ΔTm at Peregrin (Homo sapiens) was 6.8 °C.
Turning to `COc1cc2c(cc1NS(=O)(=O)c1ccc(C#N)cc1OC)cc(C)c(=O)n2C`, in assay [3], the concentration for half-maximal inhibition (IC50) was found to be 1.7 µM. On Peregrin (Homo sapiens), the thermal shift (ΔTm) was 12.7 °C.
In turn, `CCc1cc2cc(NS(=O)(=O)c3ccc(C#N)cc3OC)ccc2n(C)c1=O` gave a concentration for half-maximal inhibition (IC50) at Peregrin of 0.093 µM. Also, the ΔTm at Peregrin (Homo sapiens) is 8 °C.
Turning to `CCc1cc2cc(NS(=O)(=O)c3ccc(C#N)cc3)ccc2n(CC)c1=O`, the half-inhibitory concentration (IC50) in assay [3] was greater than 100 µM.
`COc1cc2c(ccc(=O)n2C)cc1N(C)S(=O)(=O)c1ccc(C#N)cc1` came in with an IC50 on Peregrin of 1 µM.
Regarding `Cn1c(=O)ccc2cc(NS(=O)(=O)c3ccccc3)ccc21`, in assay [4], the half-maximal inhibitory concentration (IC50) was determined as 2.2 µM. At Peregrin (Homo sapiens), the thermal shift (ΔTm) was determined as 5.3 °C.
For the compound `CCS(=O)(=O)Nc1ccc2c(ccc(=O)n2C)c1`, at Peregrin (Homo sapiens), the shift in melting temperature (ΔTm) was determined as 1.8 °C.
With `COc1cc2c(ccc(=O)n2C)cc1NS(=O)(=O)c1ccc(C#N)cc1`, the 50% inhibitory concentration (IC50) in assay [3] was greater than 10 µM. In addition, at Peregrin (Homo sapiens), the thermal shift (ΔTm) worked out at 5.6 °C.
The compound `CCN(c1ccc2c(c1)cc(C)c(=O)n2C)S(=O)(=O)c1ccc(C#N)cc1OC` showed an IC50 at Peregrin of 0.11 µM.
With `Cn1c(=O)ccc2cc(NS(=O)(=O)C3CC3)ccc21`, the shift in melting temperature (ΔTm) on Peregrin (Homo sapiens) is 1.9 °C.
On the same count and under the same terms, to `COc1cc2c(ccc(=O)n2C)cc1NS(=O)(=O)c1ccccc1` belongs 6.3 °C; to `Cn1c(=O)ccc2cc(NS(=O)(=O)c3cccc(C#N)c3)ccc21`, 4.4 °C.
Still for that read-out and setting: the same measure for `COc1ccccc1S(=O)(=O)Nc1ccc2c(c1)cc(C)c(=O)n2C`: 10.2 °C; for `COc1cc2c(cc1NS(=O)(=O)c1ccccc1)cc(C)c(=O)n2C`: 9.4 °C.
Take `CC(C)c1cc2cc(NS(=O)(=O)c3ccc(C#N)cc3)ccc2n(C)c1=O`: the IC50 worked out at 0.87 µM against Peregrin, 14 µM in assay [2] and 16 µM in assay [1].

One may read the IC50 as the point on the concentration scale where inhibition reaches its midpoint. Higher therefore signals a need for much substance. For orientation: ΔTm means the shift of the melting midpoint relative to a reference.
